Here are results for 9 compounds from patent US10004701B2, “Methods and compositions for treating infection” (UNIVERSITY OF ROCHESTER, priority 2012, dated 2018).

What all share (assay): AK assay 384-well format, Prestwick library screening
Assay [1] deals with E. coli. Format: cell-based, Escherichia coli. As to conditions: 50 μM final drug concentration; for fold induction at 50 µM: Escherichia coli, 3 h.
Assay [2] concerns S. aureus strain USA300-0114. The format is cell-based, Staphylococcus aureus. The following applies: 50 μM final drug concentration; for fold induction at 50 µM: Staphylococcus aureus, USA300, 3 h.
The test system of assay [3] is K. pneumoniae. The format is cell-based, Klebsiella pneumoniae. As to conditions: 50 μM final drug concentration; for fold induction at 50 µM: Klebsiella pneumoniae, 3 h.
In assay [4] the test system is A. baumannii strain 98-37-09. The format is cell-based, Acinetobacter baumannii. As to conditions: 50 μM final drug concentration; for fold induction at 50 µM: Acinetobacter baumannii, 983709, 3 h.
In assay [5] the test system is P. aeruginosa. Format: cell-based, Pseudomonas aeruginosa. The following applies: 50 μM final drug concentration; for fold induction at 50 µM: Pseudomonas aeruginosa, 3 h.
For assay [6], the system named is E. cloacae. The format is cell-based, Enterobacter cloacae. The following applies: 50 μM final drug concentration; for fold induction at 50 µM: Enterobacter cloacae, 3 h.
In assay [7] the test system is E. faecium. The format is cell-based, Enterococcus faecium. The following applies: 50 μM final drug concentration; for fold induction at 50 µM: Enterococcus faecium, 3 h.
[8] abbreviates: 384-well format, cutoff for positive-scoring molecules 3-fold increase, read-out: AK-based Prestwick Library Screening Results, E. coli (increase in extracellular AK activity).
The mark [9] stands for this setting: 384-well format, cutoff for positive-scoring molecules 3-fold increase, read-out: AK-based Prestwick Library Screening Results, S. aureus (increase in extracellular AK activity).
The mark [10] stands for this setting: 384-well format, cutoff for positive-scoring molecules 3-fold increase, read-out: AK-based Prestwick Library Screening Results, K. pneumoniae (increase in extracellular AK activity).
Setting [11] is: 384-well format, cutoff for positive-scoring molecules 3-fold increase, read-out: AK-based Prestwick Library Screening Results, A. baumannii (increase in extracellular AK activity).
The mark [12] stands for this setting: 384-well format, cutoff for positive-scoring molecules 3-fold increase, read-out: AK-based Prestwick Library Screening Results, P. aeruginosa (increase in extracellular AK activity).
[13] abbreviates: 384-well format, cutoff for positive-scoring molecules 3-fold increase, read-out: AK-based Prestwick Library Screening Results, E. cloacae (increase in extracellular AK activity).
[14] abbreviates: 384-well format, cutoff for positive-scoring molecules 3-fold increase, read-out: AK-based Prestwick Library Screening Results, E. faecium (increase in extracellular AK activity).
Setting [15] is: planktonic, cutoff for positive 3-fold increase, read-out: AK-based Prestwick Library Screening Results, S. aureus (fold increase in extracellular AK activity).
[16] abbreviates: planktonic, cutoff for positive 3-fold increase, read-out: AK-based Prestwick Library Screening Results, K. pneumoniae (fold increase in extracellular AK activity).
Where [17] appears, read: planktonic, cutoff for positive 3-fold increase, read-out: AK-based Prestwick Library Screening Results, A. baumannii (fold increase in extracellular AK activity).
Where [18] appears, read: planktonic, cutoff for positive 3-fold increase, read-out: AK-based Prestwick Library Screening Results, P. aeruginosa (fold increase in extracellular AK activity).
The mark [19] stands for this setting: planktonic, cutoff for positive 3-fold increase, read-out: AK-based Prestwick Library Screening Results, E. cloacae (fold increase in extracellular AK activity).
Setting [20] is: planktonic, cutoff for positive 3-fold increase, read-out: AK-based Prestwick Library Screening Results, E. faecium (fold increase in extracellular AK activity).

Each structure is given as a SMILES string. Structures can show the parent of a compound that is named as a salt. Where two headings read alike, the source gives them in different places.

On to `COc1ccc2c(c1OC)C(=O)O[C@@H]2[C@H]1c2cc3c(cc2CCN1C)OCO3` [Hydrastine hydrochloride], for which the fold induction at 50 µM in assay [1] (planktonic E. coli, […], read-out: AK-based Prestwick Library Screening Results, E. coli (increase in extracellular AK activity)) was found to be 0.9; in assay [2] (planktonic S. aureus, […], read-out: AK-based Prestwick Library Screening Results, S. aureus (increase in extracellular AK activity)), 0.6; in assay [3] (planktonic K. pneumoniae, […], read-out: AK-based Prestwick Library Screening Results, K. pneumoniae (increase in extracellular AK activity)) it was 0.8; in assay [4] (planktonic A. baumannii, […], read-out: AK-based Prestwick Library Screening Results, A. baumannii (increase in extracellular AK activity)) it was 1; in assay [5] (planktonic P. aeruginosa, […], read-out: AK-based Prestwick Library Screening Results, P. aeruginosa (increase in extracellular AK activity)), 0.9; in assay [6] (planktonic E. cloacae, […], read-out: AK-based Prestwick Library Screening Results, E. cloacae (increase in extracellular AK activity)), 0.9. The fold induction at 50 µM in assay [7] (planktonic E. faecium, […], read-out: AK-based Prestwick Library Screening Results, E. faecium (increase in extracellular AK activity)) worked out at 1.
In the case of `CN1CCc2cc3c(cc2C1O)OCO3` (stereo not drawn) [Hydrastinine hydrochloride], the fold induction at 50 µM in assay [1] (setting [8]) was 1; in assay [2] (setting [9]), 0.7; in assay [3] (setting [10]), 0.8; in assay [4] (setting [11]), 0.9; in assay [5] (setting [12]), 0.9; in assay [6] (setting [13]), 1.2. Moreover, the fold induction at 50 µM in assay [7] (setting [14]) was 0.9.
With `NS(=O)(=O)c1cc2c(cc1Cl)NCNS2(=O)=O` [Hydrochlorothiazide], the fold induction at 50 µM was 0.5 in assay [1] (setting [8]); 0.5 in assay [2] (setting [9]); 0.6 in assay [3] (setting [10]); 0.5 in assay [4] (setting [11]); 0.5 in assay [5] (setting [12]); 0.4 in assay [6] (setting [13]). In addition, the fold induction at 50 µM in assay [7] (setting [14]) stood at 1.1.
For the compound `C[C@]12CCC(=O)C=C1CC[C@@H]1[C@@H]2[C@@H](O)C[C@@]2(C)[C@H]1CC[C@]2(O)C(=O)CO` [Hydrocortisone base], in assay [1] (planktonic E. coli, cutoff for positive-scoring molecules 3-fold increase), the “AK-based Prestwick Library Screening Results, E. coli (increase in extracellular AK activity)” value is 1.1. For the same compound, the “AK-based Prestwick Library Screening Results, S. aureus (increase in extracellular AK activity)” value in assay [2] (planktonic S. aureus, cutoff for positive-scoring molecules 3-fold increase) is recorded as 1.3. Also, the “AK-based Prestwick Library Screening Results, K. pneumoniae (increase in extracellular AK activity)” value in assay [3] (planktonic K. pneumoniae, cutoff for positive-scoring molecules 3-fold increase) is reported as 0.9. Moreover, in assay [4] (planktonic A. baumannii, cutoff for positive-scoring molecules 3-fold increase), the “AK-based Prestwick Library Screening Results, A. baumannii (increase in extracellular AK activity)” value is 1.3. Further, the “AK-based Prestwick Library Screening Results, P. aeruginosa (increase in extracellular AK activity)” value in assay [5] (planktonic P. aeruginosa, cutoff for positive-scoring molecules 3-fold increase) is given as 1.1. The “AK-based Prestwick Library Screening Results, E. cloacae (increase in extracellular AK activity)” value in assay [6] (planktonic E. cloacae, cutoff for positive-scoring molecules 3-fold increase) was determined as 1.4. For the same compound, the “AK-based Prestwick Library Screening Results, E. faecium (increase in extracellular AK activity)” value in assay [7] (planktonic E. faecium, cutoff for positive-scoring molecules 3-fold increase) is 1.0.
`COc1c2c(cc3c1OCO3)CCN(C)C2` [Hydrocotarnine hydrobromide]: the fold induction at 50 µM in assay [1] (planktonic, […], read-out: AK-based Prestwick Library Screening Results, E. coli (fold increase in extracellular AK activity)) was determined as 1.2; in assay [2] (setting [15]) it was 1; in assay [3] (setting [16]), 0.9; in assay [4] (setting [17]), 1.3; in assay [5] (setting [18]) it was 1.2; in assay [6] (setting [19]), 1.4. The fold induction at 50 µM in assay [7] (setting [20]) stood at 1.
Consider `NS(=O)(=O)c1cc2c(cc1C(F)(F)F)NCNS2(=O)=O` [Hydroflumethiazide], for which the fold induction at 50 µM in assay [1] (setting [8]) was determined as 0.7; in assay [2] (setting [9]), 0.5; in assay [3] (setting [10]), 0.5; in assay [4] (setting [11]), 0.7; in assay [5] (setting [12]), 0.5; in assay [6] (setting [13]) it was 0.7. Also, the fold induction at 50 µM in assay [7] (setting [14]) was found to be 0.9.
`CC[C@H]1CN2CC[C@H]1C[C@H]2[C@H](O)c1ccnc2ccc(OC)cc12` [Hydroquinine hydrobromide hydrate]: the fold induction at 50 µM in assay [1] (planktonic, cutoff for positive 3-fold increase, read-out: AK-based Prestwick Library Screening Results, E. coli (fold increase in extracellular AK activity)) turned out to be 1.2; in assay [2] (setting [15]) it was 1; in assay [3] (setting [16]) it was 1.3; in assay [4] (setting [17]), 1.2; in assay [5] (setting [18]) it was 1.2; in assay [6] (setting [19]), 1.6. The fold induction at 50 µM in assay [7] (setting [20]) amounted to 1.1.
In the case of `OCCOCCN1CCN(C(c2ccccc2)c2ccc(Cl)cc2)CC1` (stereo not drawn) [Hydroxyzine dihydrochloride], the fold induction at 50 µM in assay [1] (planktonic E. coli, 384-well, cutoff for positive-scoring molecules 3-fold increase, read-out: AK-based Prestwick Library Screening Results: E. coli (increase in extracellular AK activity)) is 1; in assay [2] (planktonic S. aureus, 384-well, cutoff for positive-scoring molecules 3-fold increase, read-out: AK-based Prestwick Library Screening Results: S. aureus (increase in extracellular AK activity)), 0.9; in assay [3] (planktonic K. pneumoniae, 384-well, cutoff for positive-scoring molecules 3-fold increase, read-out: AK-based Prestwick Library Screening Results: K. pneumoniae (increase in extracellular AK activity)), 0.8; in assay [4] (planktonic A. baumannii, 384-well, cutoff for positive-scoring molecules 3-fold increase, read-out: AK-based Prestwick Library Screening Results: A. baumannii (increase in extracellular AK activity)) it was 1; in assay [5] (planktonic P. aeruginosa, 384-well, cutoff for positive-scoring molecules 3-fold increase, read-out: AK-based Prestwick Library Screening Results: P. aeruginosa (increase in extracellular AK activity)) it was 1; in assay [6] (planktonic E. cloacae, 384-well, cutoff for positive-scoring molecules 3-fold increase, read-out: AK-based Prestwick Library Screening Results: E. cloacae (increase in extracellular AK activity)), 1.6. In addition, in assay [7] (planktonic E. faecium, 384-well, cutoff for positive-scoring molecules 3-fold increase, read-out: AK-based Prestwick Library Screening Results: E. faecium (increase in extracellular AK activity)), the fold induction at 50 µM was found to be 0.9.
As to `Cc1cc(=O)oc2cc(O)ccc12` [Hymecromone], the fold induction at 50 µM in assay [1] (planktonic, cutoff for positive-scoring molecules 3-fold increase, read-out: AK-based Prestwick Library Screening Results, E. coli (fold increase in extracellular AK activity)) was 0.9; in assay [2] (planktonic, cutoff for positive-scoring molecules 3-fold increase, read-out: AK-based Prestwick Library Screening Results, S. aureus (fold increase in extracellular AK activity)), 1; in assay [3] (planktonic, cutoff for positive-scoring molecules 3-fold increase, read-out: AK-based Prestwick Library Screening Results, K. pneumoniae (fold increase in extracellular AK activity)) it was 0.7; in assay [4] (planktonic, cutoff for positive-scoring molecules 3-fold increase, read-out: AK-based Prestwick Library Screening Results, A. baumannii (fold increase in extracellular AK activity)) it was 0.8; in assay [5] (planktonic, cutoff for positive-scoring molecules 3-fold increase, read-out: AK-based Prestwick Library Screening Results, P. aeruginosa (fold increase in extracellular AK activity)) it was 1; in assay [6] (planktonic, cutoff for positive-scoring molecules 3-fold increase, read-out: AK-based Prestwick Library Screening Results, E. cloacae (fold increase in extracellular AK activity)), 1.1. Also, the fold induction at 50 µM in assay [7] (planktonic, cutoff for positive-scoring molecules 3-fold increase, read-out: AK-based Prestwick Library Screening Results, E. faecium (fold increase in extracellular AK activity)) was found to be 1.
